Counter-ions that a name gives are not always drawn. Like-named read-outs stand apart in the source and are kept apart here.
What was measured:
AMD = details: cited from earlier work
[1] = Ocular biodistribution study following ocular administration; format: in vivo, Dutch-Belted rabbits; details: formulation G, 0.08 mg/eye once; for concentration at 15 min / concentration at 30 min / concentration at 3 h: male, Dutch-Belted, rabbit, posterior sclera and choroid, other: ocular administration, 0.08 mg/eye
Protocol: The objective of this study was to determine the ocular biodistribution of squalamine lactate formulation G (see composition above) when given once by ocular administration to male Dutch-Belted rabbits.
The study design was as follows:
Body weight measurements were taken for randomization/dose calculation purposes. […] Following dose administration, blood samples were collected at specified time points and plasma was prepared. After blood sample collection, the animals were euthanized and a necropsy was performed to collect the following ocular tissues: aqueous humor, vitreous humor, sensory retina and choroid/sclera.

[2] = tested on: human vascular endothelial cells (HUVEC); test: Inhibition of VEGF induced tube formation by HUVEC; format: cell-based; details: 50 nM (tested at 50, 100, 200 nM), 24 hrs, Matrigel with VEGF
Protocol: Squalamine lactate was mixed in solution at 50, 100 or 200 nM concentration with a suspension of human vascular endothelial cells (HUVEC). The suspension was then immediately plated on Matrigel which contained multiple growth factors including vascular endothelial cell growth factor (VEGF). The plates were incubated at 37° C. in an atmosphere of […] for 24 hrs and then the plates were photographed.

[3] = any animals (15 min, 30 min, 3 hrs)
[4] = mean of eyes, read-out: Squalamine in posterior sclera and choroid, Mean

In the case of `CC(C)[C@@H](CC[C@@H](C)[C@H]1CC[C@H]2[C@@H]3[C@H](O)C[C@H]4C[C@@H](NCCCNCCCCN)CC[C@]4(C)[C@H]3CC[C@]12C)OS(=O)(=O)O` [Squalamine, ([6-[(3S,5R,7R,10S,13R,145)-3-[3-(4-aminobutylamino)propylamino]-7-hydroxy-10,13-dimethyl-2,3,4,5,6,7,8,9,11,12,14,15,16,17-tetradecahydro-1H-cyclopenta[a]phenanthren-17-yl]-2-methylheptan-3-yl]hydrogen sulfate)], the visual acuity (AMD; IV infusion, after the first four to five weeks of administration) is listed as “good gains in visual acuity”, the plasma half-life (AMD; human subjects, 40 mg dose, intravenous infusion) is listed as “short” and the “adverse reactions of intravenous dosing” value (AMD; intravenous dosing, human) is listed as “local infusion-site reactions”. The “Squalamine in posterior sclera and choroid” value ([1]; 30 min, An#105 left eye) was “BQL”, the “Level of squalamine in aqueous humor” value [1, 3] was “No quantifiable levels” and the “Level of squalamine in vitreous humor” value [1, 3] was “No quantifiable levels”. For the same compound, the concentration at 15 min ([1]; An#101 left eye, read-out: Squalamine in posterior sclera and choroid) was 101 ng/g, the concentration at 15 min ([1]; An#101 right eye, read-out: Squalamine in posterior sclera and choroid) was 26.6 ng/g and the concentration at 15 min ([1]; An#102 left eye, read-out: Squalamine in posterior sclera and choroid) was 44.2 ng/g. The concentration at 15 min ([1]; An#102 right eye, read-out: Squalamine in posterior sclera and choroid) was 145 ng/g, the concentration at 15 min ([1]; An#103 left eye, read-out: Squalamine in posterior sclera and choroid) was 195 ng/g and the concentration at 15 min ([1]; An#103 right eye, read-out: Squalamine in posterior sclera and choroid) was 31.7 ng/g. The concentration at 15 min [1, 4] was 90.6 ng/g, the concentration at 30 min ([1]; 30 min, An#104 left eye, read-out: Squalamine in posterior sclera and choroid) was 54.4 ng/g and the concentration at 30 min ([1]; 30 min, An#104 right eye, read-out: Squalamine in posterior sclera and choroid) was 121 ng/g. For the same compound, the concentration at 30 min ([1]; 30 min, An#105 right eye, read-out: Squalamine in posterior sclera and choroid) was 78.9 ng/g, the concentration at 30 min ([1]; 30 min, An#106 left eye, read-out: Squalamine in posterior sclera and choroid) was 96.7 ng/g and the concentration at 30 min ([1]; 30 min, An#106 right eye, read-out: Squalamine in posterior sclera and choroid) was 94.1 ng/g. For the same compound, the concentration at 30 min ([1]; 30 min, mean of eyes, read-out: Squalamine in posterior sclera and choroid, Mean) was 89 ng/g, the concentration at 3 h ([1]; An#107 left eye, read-out: Squalamine in posterior sclera and choroid) was 23.9 ng/g and the concentration at 3 h ([1]; An#107 right eye, read-out: Squalamine in posterior sclera and choroid) was 149 ng/g. For the same compound, the concentration at 3 h ([1]; An#108 left eye, read-out: Squalamine in posterior sclera and choroid) was 26 ng/g, the concentration at 3 h ([1]; An#108 right eye, read-out: Squalamine in posterior sclera and choroid) was 34.6 ng/g and the concentration at 3 h ([1]; An#109 left eye, read-out: Squalamine in posterior sclera and choroid) was 71.8 ng/g. For the same compound, the concentration at 3 h ([1]; An#109 right eye, read-out: Squalamine in posterior sclera and choroid) was 51.1 ng/g, the concentration at 3 h [1, 4] was 59.4 ng/g and the “HUVEC tube formation on Matrigel” value [2] was “disrupts tube formation”.

Reference: US20130281420A1, “Ophthalmic Formulations of Squalamine” (Ohr Pharmaceutical, Inc., priority 2010, published 2013)
